Test results: PubChem BioAssay AID1918947 (Molecular Pharmacology Branch, DTP, NCI, 2023)
Several values for one entry are separate records, joined by “and”; a condition that tells them apart may be missing. Identical values can stand only once.

Test system: A498 complex spheroid viability
Experiment: Anticancer human tumor A498 cell line growth inhibition;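 further: spheroids exposed to agents for seven days before readout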;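 on viability, T/C: 100% = DMSO vehicle-treated spheroids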
Conditions: for viability, T/C: stronger effect = lower value
Summary of the method: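 Drug combinations with the LSD1 inhibitor iadademstat tested on tumor cells co-cultured as spheroids with endothelial cells and mesenchymal stem cells. Concentrations descended in half-log increments from clinical Cmax or 10 microM.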

[1] = curve of first compound, second compound 0.1 µM
[2] = curve of first compound, second compound 0.316 µM
[3] = curve of first compound, second compound 1 µM
[4] = curve of first compound, second compound 3.16 µM
[5] = curve of first compound, second compound 10 µM
[6] = second compound 0.1 µM, first compound 0.00949 µM
[7] = second compound 0.1 µM, first compound 0.03 µM
[8] = second compound 0.1 µM, first compound 0.0949 µM
[9] = second compound 0.1 µM, first compound 0.3 µM
[10] = second compound 0.316 µM, first compound 0.00949 µM
[11] = second compound 0.316 µM, first compound 0.03 µM
[12] = second compound 0.316 µM, first compound 0.0949 µM
[13] = second compound 0.316 µM, first compound 0.3 µM
[14] = second compound 1 µM, first compound 0.00949 µM
[15] = second compound 1 µM, first compound 0.03 µM
[16] = second compound 1 µM, first compound 0.0949 µM
[17] = second compound 1 µM, first compound 0.3 µM
[18] = second compound 3.16 µM, first compound 0.00949 µM
[19] = second compound 3.16 µM, first compound 0.03 µM
[20] = second compound 3.16 µM, first compound 0.0949 µM
[21] = second compound 3.16 µM, first compound 0.3 µM
[22] = second compound 10 µM, first compound 0.00949 µM
[23] = second compound 10 µM, first compound 0.03 µM
[24] = second compound 10 µM, first compound 0.0949 µM
[25] = second compound 10 µM, first compound 0.3 µM
[26] = second compound 0.1 µM, first compound 0.000949 µM
[27] = second compound 0.1 µM, first compound 0.003 µM
[28] = second compound 0.316 µM, first compound 0.000949 µM
[29] = second compound 0.316 µM, first compound 0.003 µM
[30] = second compound 1 µM, first compound 0.000949 µM
[31] = second compound 1 µM, first compound 0.003 µM
[32] = second compound 3.16 µM, first compound 0.000949 µM
[33] = second compound 3.16 µM, first compound 0.003 µM
[34] = second compound 10 µM, first compound 0.000949 µM
[35] = second compound 10 µM, first compound 0.003 µM
[36] = second compound 0.1 µM, first compound 0.00316 µM
[37] = second compound 0.1 µM, first compound 0.01 µM
[38] = second compound 0.1 µM, first compound 0.0316 µM
[39] = second compound 0.1 µM, first compound 0.1 µM
[40] = second compound 0.316 µM, first compound 0.00316 µM
[41] = second compound 0.316 µM, first compound 0.01 µM
[42] = second compound 0.316 µM, first compound 0.0316 µM
[43] = second compound 0.316 µM, first compound 0.1 µM
[44] = second compound 1 µM, first compound 0.00316 µM
[45] = second compound 1 µM, first compound 0.01 µM
[46] = second compound 1 µM, first compound 0.0316 µM
[47] = second compound 1 µM, first compound 0.1 µM
[48] = second compound 3.16 µM, first compound 0.00316 µM
[49] = second compound 3.16 µM, first compound 0.01 µM
[50] = second compound 3.16 µM, first compound 0.0316 µM
[51] = second compound 3.16 µM, first compound 0.1 µM
[52] = second compound 10 µM, first compound 0.00316 µM
[53] = second compound 10 µM, first compound 0.01 µM
[54] = second compound 10 µM, first compound 0.0316 µM
[55] = second compound 10 µM, first compound 0.1 µM

COc1cc(C2c3cc4c(cc3C(OC3OC5COC(C)OC5C(O)C3O)C3COC(=O)C23)OCO4)cc(OC)c1O (configuration not stated) + NC1CCC(NC2CC2c2ccccc2)CC1
IC50 [1]: > 3000 nM | IC50 [2]: > 3000 nM | IC50 [3]: > 3000 nM | IC50 [4]: 2330 nM | IC50 [5]: 1420 nM | viability, T/C [6]: 81.8% | viability, T/C [7]: 67.1% | viability, T/C [8]: 59.9% | viability, T/C [9]: 58.5% | viability, T/C (second compound 0.1 µM, first compound 0.949 µM): 55.7% | viability, T/C (second compound 0.1 µM, first compound 3 µM): 54.5% | viability, T/C [10]: 79.4% | viability, T/C [11]: 71.2% | viability, T/C [12]: 70.3% | viability, T/C [13]: 67.5% | viability, T/C (second compound 0.316 µM, first compound 0.949 µM): 59.6% | viability, T/C (second compound 0.316 µM, first compound 3 µM): 57.5% | viability, T/C [14]: 82% | viability, T/C [15]: 69.3% | viability, T/C [16]: 68.6% | viability, T/C [17]: 62.9% | viability, T/C (second compound 1 µM, first compound 0.949 µM): 57.6% | viability, T/C (second compound 1 µM, first compound 3 µM): 57.2% | viability, T/C [18]: 72.5% | viability, T/C [19]: 69.6% | viability, T/C [20]: 63.5% | viability, T/C [21]: 60.7% | viability, T/C (second compound 3.16 µM, first compound 0.949 µM): 52.5% | viability, T/C (second compound 3.16 µM, first compound 3 µM): 49.2% | viability, T/C [22]: 64.3% | viability, T/C [23]: 66.8% | viability, T/C [24]: 61.5% | viability, T/C [25]: 63.4% | viability, T/C (second compound 10 µM, first compound 0.949 µM): 48.8% | viability, T/C (second compound 10 µM, first compound 3 µM): 45.3%

CC(C)CC(NC(=O)C(Cc1ccccc1)NC(=O)c1cnccn1)B(O)O (configuration not stated)
viability, T/C (compound 0.000316 µM): 103% | viability, T/C (compound 0.001 µM): 59.9% and 22.5% | viability, T/C (compound 0.00316 µM): 3.38% and 2.52% | viability, T/C (compound 0.01 µM): 0.64% and 0.86% | viability, T/C (compound 0.0316 µM): 0.57% and 0.5% | viability, T/C (compound 0.1 µM): 0.31% and 0.36% | IC50 (curve of compound): 1.22 nM and 0.674 nM

Nc1ccn(C2OC(CO)C(O)C2(F)F)c(=O)n1 (configuration not stated) + NC1CCC(NC2CC2c2ccccc2)CC1
IC50 [1]: < 0.949 nM | IC50 [2]: < 0.949 nM | IC50 [3]: < 0.949 nM | IC50 [4]: < 0.949 nM | IC50 [5]: < 0.949 nM | viability, T/C [26]: 25.7% | viability, T/C [27]: 32.9% | viability, T/C [6]: 41.2% | viability, T/C [7]: 38% | viability, T/C [8]: 36.8% | viability, T/C [9]: 29.9% | viability, T/C [28]: 24.3% | viability, T/C [29]: 33.9% | viability, T/C [10]: 44.2% | viability, T/C [11]: 43.3% | viability, T/C [12]: 36.8% | viability, T/C [13]: 31.1% | viability, T/C [30]: 21.7% | viability, T/C [31]: 32.8% | viability, T/C [14]: 43.2% | viability, T/C [15]: 40.8% | viability, T/C [16]: 29.9% | viability, T/C [17]: 29.3% | viability, T/C [32]: 23.8% | viability, T/C [33]: 30.5% | viability, T/C [18]: 38.2% | viability, T/C [19]: 38.2% | viability, T/C [20]: 30.8% | viability, T/C [21]: 30.3% | viability, T/C [34]: 22.3% | viability, T/C [35]: 26.7% | viability, T/C [22]: 39.8% | viability, T/C [23]: 38.5% | viability, T/C [24]: 27.9% | viability, T/C [25]: 25.5%

CC(C)CC(NC(=O)C(Cc1ccccc1)NC(=O)c1cnccn1)B(O)O (configuration not stated) + NC1CCC(NC2CC2c2ccccc2)CC1
IC50 [1]: 0.966 nM | IC50 [2]: 0.876 nM | IC50 [3]: 0.765 nM | IC50 [4]: 0.635 nM | IC50 [5]: 0.527 nM | viability, T/C (second compound 0.1 µM, first compound 0.000316 µM): 82.1% | viability, T/C (second compound 0.1 µM, first compound 0.001 µM): 49% | viability, T/C [36]: 3.94% | viability, T/C [37]: 1.24% | viability, T/C [38]: 0.46% | viability, T/C [39]: 0.48% | viability, T/C (second compound 0.316 µM, first compound 0.000316 µM): 90.5% | viability, T/C (second compound 0.316 µM, first compound 0.001 µM): 44.7% | viability, T/C [40]: 3.08% | viability, T/C [41]: 1.09% | viability, T/C [42]: 0.41% | viability, T/C [43]: 0.97% | viability, T/C (second compound 1 µM, first compound 0.000316 µM): 84.5% | viability, T/C (second compound 1 µM, first compound 0.001 µM): 39.5% | viability, T/C [44]: 2.52% | viability, T/C [45]: 0.84% | viability, T/C [46]: 1.13% | viability, T/C [47]: 0.61% | viability, T/C (second compound 3.16 µM, first compound 0.000316 µM): 78.5% | viability, T/C (second compound 3.16 µM, first compound 0.001 µM): 31.5% | viability, T/C [48]: 1.91% | viability, T/C [49]: 0.54% | viability, T/C [50]: 0.31% | viability, T/C [51]: 0.35% | viability, T/C (second compound 10 µM, first compound 0.000316 µM): 67.6% | viability, T/C (second compound 10 µM, first compound 0.001 µM): 28% | viability, T/C [52]: 1.67% | viability, T/C [53]: 0.4% | viability, T/C [54]: 0.26% | viability, T/C [55]: 0.41%

Nc1ccn(C2OC(CO)C(O)C2(F)F)c(=O)n1 (configuration not stated) + NC1CC1c1ccc(-c2cccc(O)c2)cc1
IC50 [1]: < 0.949 nM | IC50 [2]: < 0.949 nM | IC50 [3]: < 0.949 nM | IC50 [4]: < 0.949 nM | IC50 [5]: < 0.949 nM | viability, T/C [26]: 20.6% | viability, T/C [27]: 28.4% | viability, T/C [6]: 98.4% | viability, T/C [7]: 36.4% | viability, T/C [8]: 35.8% | viability, T/C [9]: 31.5% | viability, T/C [28]: 22.6% | viability, T/C [29]: 28.6% | viability, T/C [10]: 112% | viability, T/C [11]: 33.9% | viability, T/C [12]: 35.3% | viability, T/C [13]: 32.3% | viability, T/C [30]: 22.5% | viability, T/C [31]: 26.8% | viability, T/C [14]: 105% | viability, T/C [15]: 35.5% | viability, T/C [16]: 29.3% | viability, T/C [17]: 30.6% | viability, T/C [32]: 22.6% | viability, T/C [33]: 28.3% | viability, T/C [18]: 94.6% | viability, T/C [19]: 36.1% | viability, T/C [20]: 30.3% | viability, T/C [21]: 28.1% | viability, T/C [34]: 23.5% | viability, T/C [35]: 28.2% | viability, T/C [22]: 93.5% | viability, T/C [23]: 40.7% | viability, T/C [24]: 32.9% | viability, T/C [25]: 29.4%

CC1COCCN1c1cc(-c2ccnn2C)c2ccnc(-c3ccn[nH]3)c2n1 (configuration not stated) + NC1CC1c1ccc(-c2cccc(O)c2)cc1
IC50 [1]: 30.9 nM | IC50 [2]: 29.8 nM | IC50 [3]: 36.8 nM | IC50 [4]: 28.4 nM | IC50 [5]: 31.5 nM | viability, T/C [36]: 104% | viability, T/C [37]: 88.1% | viability, T/C [38]: 48.2% | viability, T/C [39]: 23.6% | viability, T/C (second compound 0.1 µM, first compound 0.316 µM): 16.9% | viability, T/C (second compound 0.1 µM, first compound 1 µM): 11.8% | viability, T/C [40]: 108% | viability, T/C [41]: 94% | viability, T/C [42]: 45.8% | viability, T/C [43]: 25.3% | viability, T/C (second compound 0.316 µM, first compound 0.316 µM): 18.1% | viability, T/C (second compound 0.316 µM, first compound 1 µM): 13% | viability, T/C [44]: 105% | viability, T/C [45]: 87% | viability, T/C [46]: 55.5% | viability, T/C [47]: 22.8% | viability, T/C (second compound 1 µM, first compound 0.316 µM): 17.7% | viability, T/C (second compound 1 µM, first compound 1 µM): 12.3% | viability, T/C [48]: 109% | viability, T/C [49]: 85.5% | viability, T/C [50]: 45.8% | viability, T/C [51]: 23.3% | viability, T/C (second compound 3.16 µM, first compound 0.316 µM): 15.6% | viability, T/C (second compound 3.16 µM, first compound 1 µM): 12.9% | viability, T/C [52]: 91.9% | viability, T/C [53]: 80.3% | viability, T/C [54]: 49% | viability, T/C [55]: 24.8% | viability, T/C (second compound 10 µM, first compound 0.316 µM): 16.3% | viability, T/C (second compound 10 µM, first compound 1 µM): 11.4%
